One block for each molecule: values may come before it.
What was measured:
[1] = molecular target: T1, Polyamine deacetylase HDAC10 (Homo sapiens, UniProt Q969S8); assay: Inhibition of full length human recombinant HDAC10 incubated for 30 to 60 mins by HDAC-Glo I/II assay
T1 sequence (Q969S8 whole entry): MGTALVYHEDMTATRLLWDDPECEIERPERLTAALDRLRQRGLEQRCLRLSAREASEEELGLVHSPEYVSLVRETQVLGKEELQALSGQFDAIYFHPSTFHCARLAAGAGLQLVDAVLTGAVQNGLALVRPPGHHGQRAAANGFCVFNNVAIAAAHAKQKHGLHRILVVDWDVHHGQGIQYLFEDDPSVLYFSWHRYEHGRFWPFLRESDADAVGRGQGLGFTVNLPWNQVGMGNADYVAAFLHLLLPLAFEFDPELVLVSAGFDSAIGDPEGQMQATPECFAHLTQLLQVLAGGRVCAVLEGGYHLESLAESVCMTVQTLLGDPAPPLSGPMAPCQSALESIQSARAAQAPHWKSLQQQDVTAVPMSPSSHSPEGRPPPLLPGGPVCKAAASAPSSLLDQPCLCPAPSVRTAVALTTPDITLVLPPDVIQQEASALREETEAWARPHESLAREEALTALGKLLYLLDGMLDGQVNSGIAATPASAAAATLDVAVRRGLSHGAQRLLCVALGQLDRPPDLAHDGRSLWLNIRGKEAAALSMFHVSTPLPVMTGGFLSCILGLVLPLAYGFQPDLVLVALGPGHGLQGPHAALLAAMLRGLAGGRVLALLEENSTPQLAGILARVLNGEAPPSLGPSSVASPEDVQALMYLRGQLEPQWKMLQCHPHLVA

Histone deacetylase 3 [2] = molecular target: T2, Histone deacetylase 3 (Homo sapiens, UniProt O15379); assay: Inhibition of full length human recombinant HDAC3 incubated for 30 to 60 mins by HDAC-Glo I/II assay
T2 sequence (O15379 whole entry): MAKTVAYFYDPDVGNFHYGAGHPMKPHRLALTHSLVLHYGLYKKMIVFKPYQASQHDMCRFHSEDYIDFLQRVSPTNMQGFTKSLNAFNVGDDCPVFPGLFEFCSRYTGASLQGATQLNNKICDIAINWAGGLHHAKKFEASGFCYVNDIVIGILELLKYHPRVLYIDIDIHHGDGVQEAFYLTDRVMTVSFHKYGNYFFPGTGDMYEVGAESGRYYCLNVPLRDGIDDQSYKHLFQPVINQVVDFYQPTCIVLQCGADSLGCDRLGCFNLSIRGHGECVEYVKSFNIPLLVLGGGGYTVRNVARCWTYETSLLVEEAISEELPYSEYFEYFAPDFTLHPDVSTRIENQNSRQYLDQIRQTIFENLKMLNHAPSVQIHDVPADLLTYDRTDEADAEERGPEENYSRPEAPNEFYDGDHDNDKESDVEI

Histone deacetylase 11 [3] = molecular target: T3, Histone deacetylase 11 (Homo sapiens, UniProt Q96DB2); assay: Inhibition of full length human recombinant HDAC11 incubated for 30 to 60 mins by HDAC-Glo I/II assay
T3 sequence (Q96DB2 whole entry): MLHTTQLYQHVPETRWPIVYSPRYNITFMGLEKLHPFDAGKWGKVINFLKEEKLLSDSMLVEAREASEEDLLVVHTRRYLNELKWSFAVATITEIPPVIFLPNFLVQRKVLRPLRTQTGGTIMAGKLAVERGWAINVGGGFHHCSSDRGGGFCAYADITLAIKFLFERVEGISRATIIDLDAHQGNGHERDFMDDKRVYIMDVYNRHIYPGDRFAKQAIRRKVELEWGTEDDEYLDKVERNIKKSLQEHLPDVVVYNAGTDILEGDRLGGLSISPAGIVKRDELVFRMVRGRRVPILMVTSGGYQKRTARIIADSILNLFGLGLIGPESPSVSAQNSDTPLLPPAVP

Histone deacetylase 2 [4] = molecular target: T4, Histone deacetylase 2 (Homo sapiens, UniProt Q92769); assay: Inhibition of full length human recombinant HDAC2 incubated for 30 to 60 mins by HDAC-Glo I/II assay
T4 sequence (Q92769 whole entry): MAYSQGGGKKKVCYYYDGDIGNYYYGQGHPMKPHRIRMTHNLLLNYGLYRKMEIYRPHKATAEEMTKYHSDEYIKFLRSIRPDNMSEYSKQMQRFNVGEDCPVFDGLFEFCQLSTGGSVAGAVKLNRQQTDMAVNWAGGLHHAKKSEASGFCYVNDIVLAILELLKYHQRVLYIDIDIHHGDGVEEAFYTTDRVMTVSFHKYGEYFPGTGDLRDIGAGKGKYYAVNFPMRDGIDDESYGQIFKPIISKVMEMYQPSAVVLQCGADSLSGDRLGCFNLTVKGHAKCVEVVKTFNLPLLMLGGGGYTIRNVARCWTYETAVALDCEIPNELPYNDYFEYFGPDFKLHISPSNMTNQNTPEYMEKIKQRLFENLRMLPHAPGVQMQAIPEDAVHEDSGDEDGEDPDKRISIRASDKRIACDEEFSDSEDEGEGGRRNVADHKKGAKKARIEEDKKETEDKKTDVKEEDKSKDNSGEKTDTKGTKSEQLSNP

[5] = molecular target: T5, Protein deacetylase HDAC6 (Homo sapiens, UniProt Q9UBN7); assay: Inhibition of full length human recombinant HDAC6 incubated for 30 to 60 mins by HDAC-Glo I/II assay
T5 sequence (Q9UBN7 whole entry): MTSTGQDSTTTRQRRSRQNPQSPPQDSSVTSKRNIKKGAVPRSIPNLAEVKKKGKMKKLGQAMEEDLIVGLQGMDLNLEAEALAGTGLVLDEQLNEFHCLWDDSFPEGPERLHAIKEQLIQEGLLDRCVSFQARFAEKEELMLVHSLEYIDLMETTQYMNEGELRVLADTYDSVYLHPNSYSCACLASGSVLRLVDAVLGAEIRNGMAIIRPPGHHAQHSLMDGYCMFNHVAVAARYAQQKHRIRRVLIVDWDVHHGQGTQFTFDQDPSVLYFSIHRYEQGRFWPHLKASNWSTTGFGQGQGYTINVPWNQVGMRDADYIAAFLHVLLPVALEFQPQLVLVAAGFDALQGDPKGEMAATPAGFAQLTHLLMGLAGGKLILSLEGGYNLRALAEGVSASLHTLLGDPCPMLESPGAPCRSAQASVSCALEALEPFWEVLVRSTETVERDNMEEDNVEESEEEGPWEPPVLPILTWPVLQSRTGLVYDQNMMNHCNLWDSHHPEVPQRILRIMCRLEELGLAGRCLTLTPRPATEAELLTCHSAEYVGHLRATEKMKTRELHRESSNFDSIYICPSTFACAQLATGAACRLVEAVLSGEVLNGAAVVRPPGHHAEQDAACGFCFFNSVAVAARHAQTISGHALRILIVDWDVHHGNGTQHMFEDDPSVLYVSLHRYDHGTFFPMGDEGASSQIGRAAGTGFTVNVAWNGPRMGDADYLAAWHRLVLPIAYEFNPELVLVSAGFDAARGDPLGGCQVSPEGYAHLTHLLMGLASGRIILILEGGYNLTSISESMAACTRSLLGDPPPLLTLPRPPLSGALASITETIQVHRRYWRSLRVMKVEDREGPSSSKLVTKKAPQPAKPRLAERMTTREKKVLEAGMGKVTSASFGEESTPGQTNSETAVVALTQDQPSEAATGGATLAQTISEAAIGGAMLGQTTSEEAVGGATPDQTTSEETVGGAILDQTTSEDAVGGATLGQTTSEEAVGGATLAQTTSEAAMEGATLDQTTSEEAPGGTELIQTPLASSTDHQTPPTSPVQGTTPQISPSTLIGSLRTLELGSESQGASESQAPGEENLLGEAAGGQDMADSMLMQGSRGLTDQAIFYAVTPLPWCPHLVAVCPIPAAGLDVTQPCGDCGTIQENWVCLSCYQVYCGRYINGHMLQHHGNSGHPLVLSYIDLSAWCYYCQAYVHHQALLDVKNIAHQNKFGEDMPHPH

Histone deacetylase 1 [6] = molecular target: T6, Histone deacetylase 1 (Homo sapiens, UniProt Q13547); assay: Inhibition of full length human recombinant HDAC1 incubated for 30 to 60 mins by HDAC-Glo I/II assay
T6 sequence (Q13547 whole entry): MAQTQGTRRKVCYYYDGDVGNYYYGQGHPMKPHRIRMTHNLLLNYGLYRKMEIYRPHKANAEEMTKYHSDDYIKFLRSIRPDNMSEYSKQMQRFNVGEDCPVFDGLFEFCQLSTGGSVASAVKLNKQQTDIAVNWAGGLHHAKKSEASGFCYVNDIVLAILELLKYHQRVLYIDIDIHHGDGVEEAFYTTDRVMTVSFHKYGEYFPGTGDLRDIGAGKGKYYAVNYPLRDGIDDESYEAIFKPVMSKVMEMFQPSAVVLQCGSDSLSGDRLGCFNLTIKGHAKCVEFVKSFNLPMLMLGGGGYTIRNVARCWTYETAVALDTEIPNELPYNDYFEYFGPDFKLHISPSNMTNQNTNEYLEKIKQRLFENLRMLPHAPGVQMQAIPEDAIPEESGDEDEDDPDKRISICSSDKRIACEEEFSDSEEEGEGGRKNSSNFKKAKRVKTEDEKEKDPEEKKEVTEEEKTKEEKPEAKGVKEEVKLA

Histone deacetylase 8 [7] = molecular target: T7, Histone deacetylase 8 (Homo sapiens, UniProt Q9BY41); assay: Inhibition of full length human recombinant HDAC8 incubated for 30 to 60 mins by HDAC-Glo I/II assay
T7 sequence (Q9BY41 whole entry): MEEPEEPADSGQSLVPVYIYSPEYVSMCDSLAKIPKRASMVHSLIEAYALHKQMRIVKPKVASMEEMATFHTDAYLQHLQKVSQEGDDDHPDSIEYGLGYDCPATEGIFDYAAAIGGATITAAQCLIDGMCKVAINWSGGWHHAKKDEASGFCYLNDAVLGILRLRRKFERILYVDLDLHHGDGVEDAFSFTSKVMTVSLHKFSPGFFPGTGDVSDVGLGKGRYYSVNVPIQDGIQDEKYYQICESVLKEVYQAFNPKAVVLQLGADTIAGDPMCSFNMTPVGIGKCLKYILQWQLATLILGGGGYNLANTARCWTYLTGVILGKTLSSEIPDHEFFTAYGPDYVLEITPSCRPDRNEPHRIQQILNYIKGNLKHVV

Histone deacetylase 3 [8] = molecular target: T2, Histone deacetylase 3; assay: Inhibition of human recombinant HDAC3 incubated for 45 mins by microplate reader assay
Histone deacetylase 4 = Histone deacetylase 4 (Homo sapiens, UniProt P56524); assay: Inhibition of human recombinant HDAC4 incubated for 45 mins by microplate reader assay
Histone deacetylase 4, sequence (P56524 whole entry): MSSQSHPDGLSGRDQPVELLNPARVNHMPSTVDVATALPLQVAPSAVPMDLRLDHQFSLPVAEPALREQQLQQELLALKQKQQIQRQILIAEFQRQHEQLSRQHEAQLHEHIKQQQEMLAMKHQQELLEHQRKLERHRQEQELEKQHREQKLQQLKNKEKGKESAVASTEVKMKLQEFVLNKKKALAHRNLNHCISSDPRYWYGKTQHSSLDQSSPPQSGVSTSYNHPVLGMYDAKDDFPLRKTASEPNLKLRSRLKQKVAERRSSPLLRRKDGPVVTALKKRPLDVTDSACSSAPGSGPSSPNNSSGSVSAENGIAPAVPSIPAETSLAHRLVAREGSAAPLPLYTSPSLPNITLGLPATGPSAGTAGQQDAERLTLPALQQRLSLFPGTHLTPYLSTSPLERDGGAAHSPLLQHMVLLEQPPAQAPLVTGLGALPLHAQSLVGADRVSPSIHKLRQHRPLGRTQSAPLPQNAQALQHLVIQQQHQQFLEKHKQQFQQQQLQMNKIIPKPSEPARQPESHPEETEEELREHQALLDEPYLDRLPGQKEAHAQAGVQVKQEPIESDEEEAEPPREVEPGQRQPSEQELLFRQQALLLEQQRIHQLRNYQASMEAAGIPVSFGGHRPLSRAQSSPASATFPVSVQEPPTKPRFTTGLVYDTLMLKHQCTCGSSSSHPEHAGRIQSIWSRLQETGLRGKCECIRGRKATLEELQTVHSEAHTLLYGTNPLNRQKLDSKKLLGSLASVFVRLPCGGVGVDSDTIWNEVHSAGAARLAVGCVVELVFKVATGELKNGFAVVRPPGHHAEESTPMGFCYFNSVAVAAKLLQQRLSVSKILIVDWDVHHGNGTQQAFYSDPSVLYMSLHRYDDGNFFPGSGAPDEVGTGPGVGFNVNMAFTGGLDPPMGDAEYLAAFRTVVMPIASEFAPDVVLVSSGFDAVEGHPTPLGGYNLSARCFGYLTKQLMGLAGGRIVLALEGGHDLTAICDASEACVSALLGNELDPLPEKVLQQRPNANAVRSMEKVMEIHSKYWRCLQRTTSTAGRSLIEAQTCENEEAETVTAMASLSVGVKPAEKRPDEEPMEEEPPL

[9] = molecular target: T8, Protein deacetylase HDAC6 (Homo sapiens) (UniProt Q9UBN7); assay: Inhibition of recombinant HDAC6 (unknown origin) using […] fluorogenic peptide as substrate at 5 uM incubated for 1 hr by microplate reader assay
T8 sequence (whole entry): T5 sequence (Q9UBN7 whole entry)

[10] = molecular target: T8, Protein deacetylase HDAC6 (Homo sapiens); assay: Inhibition of recombinant HDAC6 (unknown origin) using […] fluorogenic peptide as substrate at 50 uM incubated for 1 hr by microplate reader assay
[11] = molecular target: Heat shock protein HSP 90-alpha (Homo sapiens) (UniProt P07900); assay: Inhibition of recombinant HSP90 alpha (unknown origin) at 50 uM by fluorescence polarization competitive binding assay
[12] = molecular target: T5, Protein deacetylase HDAC6; assay: Inhibition of human recombinant HDAC6 using BML-AK511 as substrate incubated for 60 mins by fluorimetric assay
Histone deacetylase 3 [13] = molecular target: T2, Histone deacetylase 3; assay: Inhibition of full length human recombinant HDAC3 expressed in baculovirus infected Sf9 cells using RHKKAc fluorogenic peptide as substrate incubated for 2 hrs
Histone deacetylase 2 [14] = molecular target: T4, Histone deacetylase 2; assay: Inhibition of full length human recombinant HDAC2 expressed in baculovirus infected Sf9 cells using RHKKAc fluorogenic peptide as substrate incubated for 2 hrs
Histone deacetylase 1 [15] = molecular target: T6, Histone deacetylase 1; assay: Inhibition of full length human recombinant HDAC1 expressed in baculovirus infected Sf9 cells using RHKKAc fluorogenic peptide as substrate incubated for 2 hrs
[16] = molecular target: T1, Polyamine deacetylase HDAC10; assay: Inhibition of full length human recombinant HDAC10 expressed in baculovirus infected Sf9 cells using RHKKAc fluorogenic peptide as substrate incubated for 2 hrs
[17] = molecular target: T5, Protein deacetylase HDAC6; assay: Inhibition of HDAC6 (unknown origin)
Histone deacetylase 1 [18] = molecular target: T6, Histone deacetylase 1; assay: Inhibition of HDAC1 (unknown origin)
Histone deacetylase 1 [19] = molecular target: T6, Histone deacetylase 1; assay: Inhibition of human recombinant HDAC1 using ZMAL -Z-(Ac)Lys-AMC fluorogenic substrate incubated for 30 mins by microplate reader assay
[20] = molecular target: T5, Protein deacetylase HDAC6; assay: Inhibition of human recombinant HDAC6 using ZMAL -Z-(Ac)Lys-AMC fluorogenic substrate incubated for 30 mins by microplate reader assay
Histone deacetylase 11 [21] = molecular target: T3, Histone deacetylase 11; assay: Inhibition of full length human recombinant HDAC11 using RHKKAc-AMC fluorogenic peptide as substrate incubated for 2 hrs by microplate reader assay
Histone deacetylase 7 = molecular target: T9, Histone deacetylase 7 (Homo sapiens, UniProt Q8WUI4); assay: Inhibition of full length human recombinant HDAC7 using Ac-LGK(TFA)-AMC fluorogenic peptide as substrate incubated for 2 hrs by microplate reader assay
T9 sequence (Q8WUI4 whole entry): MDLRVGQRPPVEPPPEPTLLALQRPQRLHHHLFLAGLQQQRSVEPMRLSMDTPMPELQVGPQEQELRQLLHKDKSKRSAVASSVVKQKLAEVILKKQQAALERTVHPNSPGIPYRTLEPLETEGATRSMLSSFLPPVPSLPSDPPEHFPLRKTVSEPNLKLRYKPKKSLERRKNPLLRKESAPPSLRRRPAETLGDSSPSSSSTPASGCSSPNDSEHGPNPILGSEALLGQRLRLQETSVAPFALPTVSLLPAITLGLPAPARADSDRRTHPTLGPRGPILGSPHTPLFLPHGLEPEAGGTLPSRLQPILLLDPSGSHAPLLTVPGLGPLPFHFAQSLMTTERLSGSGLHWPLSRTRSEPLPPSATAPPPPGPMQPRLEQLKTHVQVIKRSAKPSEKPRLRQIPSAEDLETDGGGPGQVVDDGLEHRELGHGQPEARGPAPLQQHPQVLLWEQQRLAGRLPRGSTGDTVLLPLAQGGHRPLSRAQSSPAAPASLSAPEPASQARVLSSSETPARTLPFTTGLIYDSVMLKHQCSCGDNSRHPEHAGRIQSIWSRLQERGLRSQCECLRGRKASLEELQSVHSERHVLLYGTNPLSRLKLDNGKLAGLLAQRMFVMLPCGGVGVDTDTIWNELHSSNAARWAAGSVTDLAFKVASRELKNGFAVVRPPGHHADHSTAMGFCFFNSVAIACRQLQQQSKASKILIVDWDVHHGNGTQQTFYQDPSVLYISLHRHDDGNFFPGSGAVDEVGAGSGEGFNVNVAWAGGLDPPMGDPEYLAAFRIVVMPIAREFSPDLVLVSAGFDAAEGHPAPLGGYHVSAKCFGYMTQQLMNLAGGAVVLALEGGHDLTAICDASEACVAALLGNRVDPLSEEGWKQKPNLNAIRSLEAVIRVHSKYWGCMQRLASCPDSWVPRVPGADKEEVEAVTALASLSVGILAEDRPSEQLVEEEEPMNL

Histone deacetylase 8 [22] = molecular target: T7, Histone deacetylase 8; assay: Inhibition of full length human recombinant HDAC8 using RHKKAcKAc-AMC fluorogenic peptide as substrate incubated for 2 hrs by microplate reader assay
Histone deacetylase 3 [23] = molecular target: T2, Histone deacetylase 3
Histone deacetylase 5 = Histone deacetylase 5 (Homo sapiens, UniProt Q9UQL6); assay: Inhibition of full length human recombinant HDAC5 using Ac-LGK(TFA)-AMC fluorogenic peptide as substrate incubated for 2 hrs by microplate reader assay
Histone deacetylase 5, sequence (Q9UQL6 whole entry): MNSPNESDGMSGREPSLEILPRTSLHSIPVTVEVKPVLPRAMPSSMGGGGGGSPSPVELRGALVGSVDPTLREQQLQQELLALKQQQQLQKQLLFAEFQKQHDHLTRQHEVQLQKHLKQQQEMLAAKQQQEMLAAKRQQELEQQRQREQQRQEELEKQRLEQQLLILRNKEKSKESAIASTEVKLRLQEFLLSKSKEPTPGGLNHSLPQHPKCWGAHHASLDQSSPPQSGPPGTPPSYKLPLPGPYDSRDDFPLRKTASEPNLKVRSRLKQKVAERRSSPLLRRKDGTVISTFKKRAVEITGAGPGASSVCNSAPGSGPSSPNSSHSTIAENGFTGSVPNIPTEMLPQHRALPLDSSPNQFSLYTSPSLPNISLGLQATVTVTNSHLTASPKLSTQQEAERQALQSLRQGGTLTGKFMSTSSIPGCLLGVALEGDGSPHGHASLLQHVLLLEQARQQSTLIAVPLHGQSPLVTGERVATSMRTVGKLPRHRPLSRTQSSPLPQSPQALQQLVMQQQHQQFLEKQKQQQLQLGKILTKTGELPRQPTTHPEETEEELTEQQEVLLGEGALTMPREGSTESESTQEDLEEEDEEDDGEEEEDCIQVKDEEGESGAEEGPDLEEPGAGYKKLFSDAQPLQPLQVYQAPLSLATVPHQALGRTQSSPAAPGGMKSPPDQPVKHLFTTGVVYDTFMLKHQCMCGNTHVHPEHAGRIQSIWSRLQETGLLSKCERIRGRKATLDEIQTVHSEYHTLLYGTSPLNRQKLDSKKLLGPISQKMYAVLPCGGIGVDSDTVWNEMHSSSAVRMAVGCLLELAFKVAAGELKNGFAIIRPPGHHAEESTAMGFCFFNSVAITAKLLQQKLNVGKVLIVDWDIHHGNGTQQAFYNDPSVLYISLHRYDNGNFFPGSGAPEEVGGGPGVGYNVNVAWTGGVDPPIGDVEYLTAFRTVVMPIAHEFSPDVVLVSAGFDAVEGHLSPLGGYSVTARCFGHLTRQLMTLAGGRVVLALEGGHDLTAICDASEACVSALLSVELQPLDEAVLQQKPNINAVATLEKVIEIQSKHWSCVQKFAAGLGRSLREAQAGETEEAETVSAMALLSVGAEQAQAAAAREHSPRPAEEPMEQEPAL

SMILES: COc1ccc2c3c(cccc13)C(=O)N(Cc1ccc(C(=O)NO)cc1)C2=O
IC50 [1]: 375 nM
IC50 (Histone deacetylase 3 [2]): 64 nM
IC50 (Histone deacetylase 11 [3]): > 30000 nM
IC50 (Histone deacetylase 2 [4]): 162 nM
IC50 [5]: 0.1 nM
IC50 (Histone deacetylase 1 [6]): 108 nM
IC50 (Histone deacetylase 8 [7]): > 30000 nM

SMILES: O=C(NO)c1ccc(CC(=O)N(CCO)c2ccccc2)cc1
IC50 (Histone deacetylase 3 [8]): > 10000 nM
IC50 (Histone deacetylase 4): 1700 nM

SMILES: Cc1nc(N)nc(COC(=O)c2cccc(-c3cc(C(F)(F)F)on3)c2)n1
inhibition [9]: 53%
inhibition [10]: 62%
inhibition [11]: 32%

SMILES: O=S(=O)(N1CCN(C2COC2)CC1)N(Cc1ccc(-c2nnc(C(F)(F)F)o2)cn1)c1ccc(F)c(Cl)c1
IC50 [12]: 14 nM

SMILES: O=C(NO)c1ccc(CN2CCCc3cc(Cl)ccc32)cc1
IC50 (Histone deacetylase 11 [21]): 5720 nM
IC50 (Histone deacetylase 7): 4550 nM
IC50 (Histone deacetylase 8 [22]): 3720 nM
IC50 (Histone deacetylase 3 [23]): 29500 nM
IC50 (Histone deacetylase 5): 4070 nM

The next lines start with the values.

IC50 (Histone deacetylase 3 [13]): > 50000 nM
IC50 (Histone deacetylase 2 [14]): > 50000 nM
IC50 (Histone deacetylase 1 [15]): > 50000 nM
IC50 [16]: > 50000 nM
SMILES: CC(C)(C)OC(=O)Nc1cccc(-c2cc(C(=O)NCCc3cc(C(=O)NO)no3)no2)c1

IC50 [17]: 6.9 nM
IC50 (Histone deacetylase 1 [18]): 322 nM
SMILES: CCN(CC)Cc1ccc(Cn2c(=O)c(OCc3ccc(C(=O)NO)cc3)c(-c3ccccc3)c3ccccc32)cc1

IC50 (Histone deacetylase 1 [19]): 2200 nM
IC50 [20]: 58 nM
SMILES: CCCC1=C(Nc2ccc(C(=O)NO)cc2)C2N=CC=CC2=N1 (stereo not drawn)

IC50 [17]: 11.5 nM
IC50 (Histone deacetylase 1 [18]): 319 nM
SMILES: CCN(CC)Cc1ccc(Cn2c(=O)c(OCc3ccc(C(=O)NO)cc3)c(-c3cccnc3)c3ccccc32)cc1

From ChEMBL document CHEMBL5096156, “A Review of Progress in Histone Deacetylase 6 Inhibitors Research: Structural Specificity and Functional Diversity” (J Med Chem, 2021)
